Broadly, the kcat/Km is the turnover number divided by the Michaelis constant. Usually Km stands for the substrate concentration at which the rate is half of its maximum. The term IC50 denotes the point on the concentration scale where inhibition reaches its midpoint.

Here are results for two compounds from patent publication US9873883B2, “Glyphosate resistant plants and associated methods” (Dow AgroSciences LLC, priority 2012, dated 2018).

The subject of experiment [1] is bacterial EPSP synthase DGT-12 (GENBANK ZP_01622155.1) variant DGT-12 v6 (G→A at residue 111), SEQ ID NO:7. As to the kind of experiment: In vitro kinetic assay (inorganic phosphate production, malachite green). In kind it is biochemical. The source says: The novel DGT-14, DGT-12, DGT-18, DGT-29 and DGT-30 enzymes were obtained and the glycine to alanine mutation was introduced into the EPSP synthase enzymes at a location analogous to the G96A location described for the E. coli version of the EPSP synthase enzyme. The DGT-14 protein sequence was modified by introducing an alanine to replace the endogenous glycine of GENBANK ACC NO: ZP_01452683 at amino acid residue 101, thereby resulting in SEQ ID NO:1. The DGT-12 protein sequence was modified by introducing an alanine to replace the endogenous glycine of GENBANK ACC NO: ZP_01622155.1 at amino acid residue 111, thereby resulting in SEQ ID NO:7. The DGT-18 protein sequence was modified by introducing an alanine to replace the endogenous glycine of GENBANK ACC NO: NP_928909.1 at amino acid residue 96, thereby resulting in SEQ ID NO:9. The DGT-29 protein sequence was modified by introducing an alanine to replace the endogenous glycine of GENBANK ACC NO: YP_322772.1 at amino acid residue 96, thereby resulting in SEQ ID NO:11. The DGT-30 protein sequence was modified by introducing an alanine to replace the endogenous glycine of GENBANK ACC NO: ZP_02156189.1 at amino acid residue 96, thereby resulting in SEQ ID NO:13.
(§1) The synthesized genes were cloned into the pET28 expression vector.
Recombinant DGT proteins were overexpressed in Rosetta2™ (DE3) cells (Novagen, Madison, Wis.) from the constructs described above. A single colony was used to inoculate 50 mL starter cultures of LB containing chloramphenicol (25 μg/mL) and kanamycin (50 μg/mL) which were cultivated overnight at 37° C. The overnight cultures were used to inoculate 1 L of LB containing chloramphenicol (25 μg/mL) and kanamycin (50 μg/mL). The cultures were grown at 37° C. to an O.D.600=0.6 then placed in an ice water bath for 10 minutes. Expression of the target proteins was achieved by addition of IPTG to a final concentration of 500 μM. Induction was allowed to proceed overnight at 20° C. followed by harvesting via centrifugation at 8,000 rpm for 20 minutes. […]

The test system of a further experiment is dgt-14 rice plants. As to the kind of experiment: Glyphosate tolerance of dgt-14 rice. Type of experiment: in vivo, Oryza sativa. The following applies: sprayed. From the text: Putatively transgenic rice plantlets at the 3-5 leaf stage are sprayed with a solution of glyphosate. Once sprayed, plantlets are allowed to dry for one hour before being moved out of the fume hood. Rating for sensitivity or resistance to glyphosate is completed from 10-14 days after treatment (DAT). Glyphosate resistant rice plantlets which contain a fully integrated copy of the dgt-14 plant are identified. Rice plants containing the dgt-14 transgene are obtained. The dgt-14 rice plants are sprayed with varying concentrations of glyphosate and shown to provide tolerance to glyphosate at concentrations up to 3360 g ae/ha.

In a further experiment the test system is T0 dgt-14 corn plants. As to the kind of experiment: Postemergence herbicide tolerance in dgt-14 transformed T0 corn. In kind it is in vivo, Zea mays. The following applies: Durango DMA. As for the experimental part: T0 events are allowed to acclimate in the greenhouse and are grown until two to four new, normal looking leaves emerge from the whorl (i.e., plants that transition from tissue culture to greenhouse growing conditions). Plants are grown at 27° C. under 16 hour light:8 hour dark conditions in the greenhouse. The plants are then treated with commercial formulations of Durango DMA™ (containing the herbicide glyphosate) with the addition of 2% w/v ammonium-sulfate. Herbicide applications are made with a track sprayer at a spray volume of 187 L/ha, 50-cm spray height. T0 plants are sprayed with a range of glyphosate from 280-4480 g ae/ha glyphosate, which is capable of significant injury to untransformed corn lines. A lethal dose is defined as the rate that causes >95% injury to the B104 inbred.

Experiment [2] deals with bacterial EPSP synthase DGT-11 v6, native (GENBANK YP_989551.1), SEQ ID NO:5 (Bartonella bacilliformis, UniProt A0ABN0IFN8). As to the kind of experiment: In vitro kinetic assay (inorganic phosphate production, malachite green). As for the experimental part:
as §1
Recombinant DGT proteins were overexpressed in Rosetta2™ (DE3) cells (Novagen, Madison, Wis.) from the constructs described above. A single colony was used to inoculate 50 mL starter cultures of LB containing chloramphenicol (25 μg/mL) and kanamycin (50 μg/mL) which were cultivated overnight at 37° C. The overnight cultures were used to inoculate 1 L of LB containing chloramphenicol (25 μg/mL) and kanamycin (50 μg/mL). The cultures were grown at 37° C. to an O.D.600=0.6 then placed in an ice water bath for 10 minutes. Expression of the target proteins was achieved by addition of IPTG to a final concentration of 500 μM. Induction was allowed to proceed overnight at 20° C. followed by harvesting via centrifugation at 8,000 rpm for 20 minutes. The cell pellets were stored at −80° C. until required for purification. All purification steps were carried out at 4° C.

Experiment [3] concerns Arabidopsis transformed with TraP5 v1::dgt-14 (pDAB102787). As to the kind of experiment: Postemergence glyphosate tolerance, visual injury. In kind it is in vivo, Arabidopsis thaliana. The following applies: 2 weeks after application.

`C=C(OP(=O)(O)O)C(=O)O` [PEP, phosphoenolpyruvate]: in experiment [1] (PEP, pH 7.5, 1 mM S3P), the kcat/Km is 700 M⁻¹ s⁻¹. For the same compound, the Km in experiment [1] (read-out: Km for PEP, pH 7.5, 1 mM S3P) stood at 128 µM.
As to `O=C(O)CNCP(=O)(O)O` [glyphosate, N-(phosphonomethyl)glycine], the “tolerance to glyphosate at concentrations up to” value with dgt-14 rice plants is on record as “up to 3360 g ae/ha”. In addition, the “tolerance to glyphosate achieved at rates up to” value in the experiment on T0 dgt-14 corn plants is “up to 4480 g ae/ha”. Further, the IC50 in experiment [2] was found to be 9.98 mM; in experiment [1] (at 1 mM PEP, read-out: IC50 (glyphosate)), 4 mM. In addition, the “Visual % injury (Ave)” value in experiment [3] (T2, 840 g ae/ha) is on record as 90.0%; in experiment [3] (T3, 840 g ae/ha), 86.3%.
